This note sets out measurements from patent US20080038809A1, “ISOLATED LECTIN POLYPEPTIDES CONSISTING OF TRUNCATED […] UDP-GalNAc:POLYPEPTIDE N- ACETYLGALACTOSAMINYLTRANSFERASES” (GLYCOZYM APS, priority 2002, published 2008).

Test [1] has as its system MUC1 secreted by wild type CHO/MUC1sol-cloneC4. The experiment in a line: Secreted MUC1 in medium, western blot. The class given is cell-based, Chinese Hamster. Conditions: 1-2 mM, compared to control treated or non-treated cells. An excerpt:
Because GalNAcα-benzyl exerts separate effects on O-glycan processing and mucin expression, the use of the novel selective inhibitor of mucin expression, GalNAcβ-benzyl, allow analysis of mucin expression and secretion in different cell line models. Examples of human cell lines (available from ATCC, USA) expressing and secreting mucins are without limitations LS174T, HT29, Colo205, CALU, MCF7, T47D, NCI-H292, and A549. Most human adenocarcinoma cell lines express and secret mucins and analysis with antibodies to detect protein expression or probes to detect mRNA can reveal the types and quantities of mucins. […] This and other cell lines can be used to treat with 2 mM GalNAcβ-benzyl. In this Example we used wild type CHO/MUC1sol-cloneC4 and western blot analysis of medium of cells treated with 1-2 mM GalNAcα-benzyl, GalNAcβ-benzyl, or the control GlcNAcα-benzyl. […] The inhibitory effect on mucin secretion can be quantified by a number of assays known to the skilled in the art including western blot, ELISA, gelfiltration, immunocapture, and other assays.

Test [2] deals with MUC1 in CHO1d1D/MUC1F-clone2 cells. The experiment in a line: MUC1 expression in cell lysates, immunoprecipitation and SDS-PAGE western blot (FIGS. 12-15). Conditions: 2 mM; for SDS-PAGE migration of MUC1 (O-glycosylation): cells grown in Gal and GalNAc. The class given is cell-based, Chinese Hamster. On the procedure:
FIG. 12 is an SDS-PAGE Western analysis of GalNAcα-benzyl inhibition of MUC1 expression in CHO 1d1D cells stably transfected with a full coding MUC1 construct. […] Cells were further treated with 2 mM GalNAcα-benzyl (lanes 1, 4, 7, 10), 2 mM GlcNAcα-benzyl (lanes 2, 5, 8, 11) or no inhibitor (lanes 3, 6, 9, 12). Cells were washed and lysed at 24 or 48 hours and the lysates subjected to immunoprecipitation with monoclonal antibody HMFG2, which broadly recognize MUC1 glycoforms. Immunoprecipitates were analysed by SDS-PAGE and western blot using HMFG2 antibody to detect MUC1 expression. Lane M indicates molecular markers with assigned mw. Lane C includes a control MUC1 180-mer tandem repeat peptide which has been GalNAc-glycosylated with 3 moles GalNAc per repeat using GalNAc-T2. The sharp bands migrating at 100-200 kd are immunoglobulins indicated by IgG.
Cells were further treated with 2 mM GalNAcα-benzyl (lanes 1, 4, 7, 10), 2 mM GalNAcβ-benzyl (lanes 2, 5, 8, 11) or 2 mM GlcNAcα-benzyl (lanes 3, 6, 9, 12). Cells were washed and lysed at 36 hours and the lysates subjected to immunoprecipitation with monoclonal antibodies HMFG2 (lanes 1-6) or 5E5 (lanes 7-12). Immunoprecipitates were analysed by SDS-PAGE and western blot using HMFG2 antibody. Lanes M and C as described in legend to FIG. 7.
We next analysed the expression of MUC1 produced by CHO1d1D/MUC1F-clone2 cells by SDS-PAGE western analysis. […] Cells were further treated with 2 mM GalNAcα-benzyl, GlcNAcα-benzyl or no inhibitor. Cells were washed and lysed at 24 or 48 hours and the lysates subjected to immunoprecipitation with monoclonal antibody HMFG2, which broadly recognize MUC1 glycoforms. Immunoprecipitates were analysed by SDS-PAGE and western blot using HMFG2 antibody to detect MUC1 expression. […] In striking contrast, treatment with GalNAcα-benzyl had significant effect after 48 hours. […] This indicates some heterogeneity in glycosylation.
As shown in Examples 2 and 3, polypeptide GalNAc-transferases contain lectin domains with binding properties for GalNAc-peptides including GalNAc-MUC1 peptides. […] GalNAcβ-benzyl, the β-anomeric configuration of GalNAc-benzyl (there is a β linkage between the N-acetylgalactosamine and the benzyl ring), was custom synthesized by Alberta Research Council (Canada), and its structure was confirmed by mass spectrometry and ^1H-NMR. […] Cells were then treated with 2 mM GalNAcα-benzyl, GalNAcβ-benzyl, or GlcNAcα-benzyl as control (GlcNAcα-benzyl was shown in Example 4 to have no effect). Cells were washed and lysed as described above after 36 hours and the lysates subjected to immunoprecipitation with anti-MUC1 monoclonal antibodies HMFG2 or 5E5. […] FIG. 15 illustrates the same experiment as in FIG. 14 except that the detection antibody is 5E5 and only Tn and STn MUC1 glycoforms are visualised.
(Immunoblotting shows a protein as a band on a membrane.)

For test [3], the system named is intracellular MUC5AC, HT29MTX cells. The experiment in a line: Intracellular MUC5AC by immunofluorescence staining of HT29MTX cells. The class given is cell-based, human. The settings on record: 5 mM, CLH2 antibody. An excerpt:
FIG. 18 illustrates immuno-fluorescence staining of HT29MTX cells treated with inhibitors as indicated and stained with the anti-MUC5AC monoclonal antibody, CLH2.
In order to evaluate GalNAcβ-benzyl as an inhibitor of mucin glycosylation and secretion we used the cultured colon carcinoma cells of mucin secreting phenotypes: HT-29 metotrexate (MTX) cells selected from the HT-29 cell line by culture in the presence of MTX (kind gift from G. Huet, France). The HT-29 MTX cells were selected to yield a goblet cell like phenotype with constitutive production of MUC5AC. In order to ensure proper goblet cell differentiation the HT29MTX cell line were continuously grown up to 21 days in the presence of 5 mM GalNAcα-benzyl, 5 mM GalNAcβ-benzyl, 5 mM GlcNAcα-benzyl and without inhibitor using culture conditions as described in Hennebicq-Reig et al. (Permanent exposure of mucin-secreting HT-29 cells to benzyl-N-acetyl-alpha-D-galactosaminide induces abnormal O-glycosylation of mucins and inhibits constitutive and stimulated MUC5AC secretion. Biochem J. 1998; 334:283-95). […] Furthermore the viscosity of the media from cells with and without inhibitor was evaluated using viscosity micro-measurement.

Molecules are shown by their SMILES. Entries after “also recorded” stand apart in the source; their conditions may differ.

With `CC(=O)N[C@H]1[C@@H](OCc2ccccc2)O[C@H](CO)[C@H](O)[C@@H]1O` [BzlαGalNAc, benzyl-N-acetyl-alpha-D-galactosaminide], the “secreted MUC1 in medium” value in test [1] is recorded as “inhibition”. Moreover, the MUC1 expression entry in test [2] (24 hours, HMFG2 blot) is listed as “no significant effect”; in test [2] (36 hours, 5E5 blot (FIG. 15)), “strong inhibition”; in test [2] (36 hours, HMFG2 blot (FIG. 14)) it was “significant reduction”; in test [2] (48 hours, HMFG2 blot, cells grown in GalNAc or Gal and GalNAc), “significant reduction”. Besides, the “SDS-PAGE migration of MUC1 (O-glycosylation)” value in test [2] (48 hours, listed as GalNAcα-benzyl) is reported as “significant shift in migration; also recorded: marked shift in migration”.
Turning to `CC(=O)N[C@H]1[C@@H](OCc2ccccc2)O[C@H](CO)[C@H](O)[C@@H]1O` [GalNAcα-benzyl, benzyl-N-acetyl-alpha-D-galactosaminide], in test [3], the “intracellular staining of MUC5AC / storage phenotype” value is recorded as “storage phenotype with increased intracellular staining of MUC5AC”.
For `CC(=O)N[C@H]1[C@H](OCc2ccccc2)O[C@H](CO)[C@H](O)[C@@H]1O` [GalNAcβ-benzyl], the “secreted MUC1 in medium” value in test [1] was “inhibition”. For the same compound, the MUC1 expression result was “strong inhibition; also recorded: same or better reduction” in test [2] (36 hours, 5E5 blot (FIG. 15)) and “significant reduction; also recorded: same or better reduction” in test [2] (36 hours, HMFG2 blot (FIG. 14)). Also, the “SDS-PAGE migration of MUC1 (O-glycosylation)” value in test [2] (36 hours) is “does not interfere with O-glycosylation; also recorded: no change in the migration”. In test [3], the “intracellular staining of MUC5AC / storage phenotype” value is reported as “did not lead to a storage disease phenotype; also recorded: clearly diminished intracellular staining of MUC5AC”.
